Results: US11311485B2, “Self-assembled particles for targeted delivery of immunomodulators to treat autoimmunity and cancer” (UNIVERSITY OF MARYLAND, BALTIMORE COUNTY, priority 2018, dated 2022)

Assay: Loading capacity of filomicelles (PEG PPS) with other immunosuppressives used in lupus
Type: physicochemical
Conditions: drug per mg of filomicelles, FIG. 10
Source text: Transmission electron microscopy (TEM) images of loaded and unloaded FMs show no difference in morphology or structure, as shown in FIG. 3.

Structure (SMILES): Cn1cnc([N+](=O)[O-])c1Sc1ncnc2nc[nH]c12 [AZA, azathioprine]
- loading into filomicelles (PEG-PPS): ~400 µg/mg
